≈ marks a conversion by molar mass, not a printed value.
What was measured:
[1] = target: T1, Toll-like receptor 4 (Homo sapiens, UniProt O00206); test: Inhibition of human TLR4 expressed in HEK293-Blue hTLR4 cells assessed as SEAP expression; format: cell-based, HEK-Blue hTLR4
[2] = Inhibition of TLR4 expression in human monocytes; format: functional, cell-based; details: Monocyte
[3] = tested on: RAW264.7; test: Antiinflammatory activity in mouse RAW264.7 cells assessed as decrease in LPS-induced NO secretion preincubated for 1 hr followed by LPS stimulation and measured after 24 hrs by Griess reagent based assay; format: functional, cell-based
[4] = target: T1, Toll-like receptor 4; test: Inhibition of LPS-stimulated TLR4 activation in HEK-Blue-hTLR4 cells assessed as reduction in SEAP release preincubated for 15 mins followed by LPS stimulation and measured after 16 hrs by microplate reader assay; format: cell-based
[5] = Inhibition of HMGB1-induced TLR4 protein expression in mouse primary microglia preincubated for 12 hrs followed by HMGB1 stimulation for 30 mins by Western blot analysis; format: functional; details: time 12.5 hrs
[6] = Inhibition of LPS-stimulated NO production in mouse RAW264.7 cells at 10 nM incubated for overnight by 2,3-diaminonaphthalene assay relative to control; format: functional
[7] = tested on: HEK293T; test: Inhibition of LPS-stimulated human TLR4/MD2 expressed in HEK293T cells assessed as reduction in NF-kappaB activation preincubated for 1 hr followed by LPS stimulation for 8 hrs by luciferase reporter gene assay; format: cell-based; details: time 9.0 hrs
[8] = Cytotoxicity against HEK293 cells assessed as cell survival at 10 uM incubated for 16 to 24 hrs by MTT method; format: toxicity, cell-based; details: human, time 16-24 hrs, read-out: Activity
[9] = target: T1, Toll-like receptor 4; test: Inhibition of TLR4 in HEK293 cells assessed as reduction in LPS-stimulated NF-kappaB activation at 10 uM incubated for 16 to 24 hrs by SEAP reporter gene assay relative to control; format: cell-based; details: time 16-24 hrs
[10] = target: T1, Toll-like receptor 4; test: Inhibition of TLR4 in HEK293 cells assessed as reduction in LPS-stimulated NF-kappaB activation at 20 uM incubated for 16 to 24 hrs by SEAP reporter gene assay relative to control; format: cell-based; details: time 16-24 hrs
[11] = tested on: HEK293; test: Cytotoxicity against HEK293 cells assessed as cell survival at 20 uM incubated for 16 to 24 hrs by MTT method; format: functional; details: Homo sapiens, time 16-24 hrs, read-out: Activity
[12] = target: T1, Toll-like receptor 4; test: Binding affinity to TLR4 in human THP-1 monocytes after 48 hrs by ELISA; format: cell-based
[13] = Inhibition of LPS-induced NO production in mouse BV-2 microglia cells incubated for 24 hrs by 2,3-diaminonaphthalene assay; format: functional, cell-based; details: BV-2, 24 h
[14] = tested on: Liver; test: Inhibition of CIS-induced MyD88 mRNA expression in rat hepatic tissue by SYBR-green dye based RT-PCR analysis; format: functional
[15] = tested on: Liver; test: Inhibition of CIS-induced TLR4 protein expression in rat hepatic tissue by Western blot analysis; format: functional
[16] = tested on: Liver; test: Inhibition of CIS-induced TLR4 mRNA expression in rat hepatic tissue by SYBR-green dye based RT-PCR analysis; format: functional
[17] = tested on: Liver; test: Inhibition of CIS-induced NF-kappaBp53 mRNA expression in rat hepatic tissue by SYBR-green dye based RT-PCR analysis; format: functional
[18] = tested on: RAW264.7; test: Antiinflammatory activity in mouse RAW264.7 cells assessed as decrease in LPS-induced TNF-alpha secretion preincubated for 1 hr followed by LPS stimulation and measured after 24 hrs by ELISA; format: functional, cell-based
[19] = tested on: RAW264.7; test: Antiinflammatory activity in mouse RAW264.7 cells assessed as decrease in LPS-induced IL-1beta secretion preincubated for 1 hr followed by LPS stimulation and measured after 24 hrs by ELISA; format: functional, cell-based

T1 sequence (O00206 whole entry): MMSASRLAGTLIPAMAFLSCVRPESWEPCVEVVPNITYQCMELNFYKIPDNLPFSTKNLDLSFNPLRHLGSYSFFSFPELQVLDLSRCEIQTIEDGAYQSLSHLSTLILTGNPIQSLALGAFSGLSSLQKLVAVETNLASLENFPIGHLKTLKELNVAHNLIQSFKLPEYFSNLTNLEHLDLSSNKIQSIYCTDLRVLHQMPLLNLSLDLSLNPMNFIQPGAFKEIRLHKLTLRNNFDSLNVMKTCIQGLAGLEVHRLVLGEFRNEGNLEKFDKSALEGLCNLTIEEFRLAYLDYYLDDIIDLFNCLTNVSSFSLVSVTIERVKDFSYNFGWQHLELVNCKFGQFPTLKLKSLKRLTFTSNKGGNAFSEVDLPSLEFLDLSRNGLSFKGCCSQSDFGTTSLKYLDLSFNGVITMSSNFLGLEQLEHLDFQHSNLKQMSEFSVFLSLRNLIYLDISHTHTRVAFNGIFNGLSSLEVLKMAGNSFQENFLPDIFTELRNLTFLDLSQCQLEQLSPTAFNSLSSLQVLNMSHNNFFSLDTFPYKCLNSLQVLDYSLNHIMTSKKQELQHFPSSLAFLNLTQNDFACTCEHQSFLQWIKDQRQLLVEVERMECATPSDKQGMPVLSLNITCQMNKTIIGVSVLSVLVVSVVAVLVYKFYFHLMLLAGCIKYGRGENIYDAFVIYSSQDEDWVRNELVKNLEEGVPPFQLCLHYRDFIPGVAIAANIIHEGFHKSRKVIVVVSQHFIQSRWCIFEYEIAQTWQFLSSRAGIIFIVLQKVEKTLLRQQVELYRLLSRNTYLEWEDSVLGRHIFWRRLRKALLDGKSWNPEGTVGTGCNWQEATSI

COc1ccc(C(=O)c2cnc(/N=C(\N)Nc3ccc(F)cc3)nc2)c(O)c1 showed an IC50 [1] of 18 µM.

Work on CC(=O)N[C@H]1[C@H](Oc2ccc([N+](=O)[O-])cc2)O[C@H](CO)[C@@H](O)[C@@H]1O yielded an IC50 [2] of 0.042 µM.

COc1ccc(C(C)=O)c(Oc2ccc(NC(=O)/C=C/c3cc(OC)c(OC)c(OC)c3)cc2)c1 showed an IC50 [3] of 6.96 µM.

In the case of COc1ccc(N/C(N)=N/c2ncc(C(=O)c3ccccc3O)cn2)cc1, the IC50 [1] is reported as 27 µM.

Work on CCCCCCCC/C=C\CCCCCCC(=O)N[C@H]1[C@H](OC(=O)CCC(=O)O)O[C@H](CO)[C@@H](OC(=O)CCC(=O)O)[C@@H]1OC(=O)CCCCCC/C=C\CCCCCCCC yielded an IC50 [4] of 3.5 µM.

With COc1ccc(C[C@H]2COC(=O)[C@@H]2Cc2ccc(O[C@@H]3O[C@H](CO)[C@@H](O)[C@H](O)[C@H]3O)c(OC)c2)cc1OC [ARCTIIN] the MIC [5] was ≤ 50 µM.

CCCCCCCCC/C=C\CCCCCCC(=O)N[C@H]1[C@H](OC(=O)CCC(=O)O)O[C@H](CO)[C@@H](OC(=O)CCC(=O)O)[C@@H]1OC(=O)CCCCCCCCCCCCC showed an IC50 [4] of 2.7 µM.

CCOC(=O)C1=C[C@@H](O)CC[C@H]1S(=O)(=O)Cc1ccc(F)cc1Cl gave an inhibition at 0.01 µM [6] of 98%.

O=C(/C=C/c1ccc(O)c(O)c1)OCCc1ccccc1 gave an MIC [7] of 1 µM (≈ 0.284 µg/mL).

Work on C=CC(=O)N(c1ccc(F)cc1Cl)S(=O)(=O)N1CCCCC1C(=O)OC (stereo not drawn) yielded a viability at 10 µM [8] of 92.2% and an inhibition [9] of 100%.

Compound N/C(=N\c1ncc(C(=O)c2cc(Cl)ccc2O)cn1)Nc1ccc(F)cc1 has an IC50 [1] of 40 µM.

Compound CC(C)Nc1ccc(N2CC[C@]34CCCC[C@H]3[C@H]2Cc2ccc(O)cc24)cc1 has an inhibition [10] of 99.8% and a viability at 20 µM [11] of 89.9%.

C=CC(=O)N(c1ccc(F)cc1Cl)S(=O)(=O)c1ccccc1C(=O)OC gave a viability at 10 µM [8] of 88.5% and an inhibition [9] of 100%.

CC(=O)N[C@H]1[C@H](OC2CCCCC2)O[C@H](CO)[C@@H](O[C@@H]2O[C@H](CO)[C@@H](O[C@@H]3O[C@H](CO)[C@@H](O[C@@H]4O[C@H](CO)[C@@H](O[C@@H]5O[C@H](CO)[C@@H](O[C@@H]6O[C@H](CO)[C@@H](O)[C@H](O)[C@H]6NC(C)=O)[C@H](O)[C@H]5NC(C)=O)[C@H](O)[C@H]4NC(C)=O)[C@H](O)[C@H]3NC(C)=O)[C@H](O)[C@H]2NC(C)=O)[C@@H]1O showed an IC50 [12] of 0.15 µM.

In the case of CCCCCCCCCCCCCC(=O)N[C@H]1[C@H](OC(=O)CCC(=O)O)O[C@H](CO)[C@@H](OC(=O)CCC(=O)O)[C@@H]1OC(=O)CCCCCCCCCCCCC, the IC50 [4] is reported as 5.91 µM.

O=C1CC[C@@]2(O)[C@H]3Cc4ccc(O)c5c4[C@@]2(CCN3CC2CC2)[C@H]1O5 [NALTREXONE] showed an IC50 [13] of 106 µM.

With CC(/C=C/C=C(\C)C(=O)O[C@@H]1O[C@H](CO[C@@H]2O[C@H](CO)[C@@H](O)[C@H](O)[C@H]2O)[C@@H](O)[C@H](O)[C@H]1O)=C\C=C\C=C(C)\C=C\C=C(/C)C(=O)O[C@@H]1O[C@H](CO[C@@H]2O[C@H](CO)[C@@H](O)[C@H](O)[C@H]2O)[C@@H](O)[C@H](O)[C@H]1O [CROCIN] the “inhibition (INH)” value [14] was 53.2%, the “inhibition (INH)” value [15] was 53.1% and the “inhibition (INH)” value [16] was 57.7%. The “inhibition (INH)” value [17] was 66.2%.

In the case of CCCCC/C=C\C/C=C\CCCCCCC(=O)N[C@H]1[C@H](OC(=O)CCC(=O)O)O[C@H](CO)[C@@H](OC(=O)CCC(=O)O)[C@@H]1OC(=O)CCCCCCCCCCCCC, the IC50 [4] is reported as 6.61 µM.

CCCCC/C=C\C/C=C\CCCCCCC(=O)N[C@H]1[C@H](OC(=O)CCC(=O)O)O[C@H](CO)[C@@H](OC(=O)CCC(=O)O)[C@@H]1OC(=O)CCCCCC/C=C\C/C=C\CCCCC gave an IC50 [4] of 4.35 µM.

In the case of O=S(=O)(Nc1ccc(C(F)(F)F)cc1)c1cccc2cccnc12, the IC50 [18] is reported as 9.74 µM, the IC50 [3] is reported as 2.61 µM and the IC50 [19] is reported as 12.7 µM.
